From ChEMBL document CHEMBL1287775, “Stereoselective synthesis of hexahydro-3-methyl-1-arylchromeno[3,4-b]pyrrole and its annulated heterocycles as potent antimicrobial agents for human pathogens” (2010)
≈ marks a conversion by molar mass, not a printed value.

Assays:
Trichoderma = assay: Antimicrobial activity against Trichoderma sp. by poison food technique; assay type: functional
Bacillus subtilis = assay: Antimicrobial activity against Bacillus subtilis by well diffusion method; assay type: functional
Staphylococcus aureus = assay: Antimicrobial activity against Staphylococcus aureus by well diffusion method; assay type: functional
Escherichia coli = assay: Antimicrobial activity against Escherichia coli by well diffusion method; assay type: functional
Streptococcus pneumoniae = assay: Antimicrobial activity against Streptococcus pneumoniae by well diffusion method; assay type: functional
Salmonella typhi = assay: Antimicrobial activity against Salmonella typhi by well diffusion method; assay type: functional, Salmonella enterica subsp. enterica serovar Typhi; settings: Salmonella enterica
Shigella sp. = assay: Antimicrobial activity against Shigella sp. by well diffusion method; assay type: functional
Aspergillus sp. = assay: Antimicrobial activity against Aspergillus sp. by poison food technique; assay type: functional
Candida albicans = assay: Antimicrobial activity against Candida albicans by poison food technique; assay type: functional

| Structure (SMILES) | MIC (Trichoderma) [µg/mL] | MIC (Bacillus subtilis) [µg/mL] | MIC (Staphylococcus aureus) [µg/mL] | MIC (Escherichia coli) [µg/mL] | MIC (Streptococcus pneumoniae) [µg/mL] | MIC (Salmonella typhi) [µg/mL] | MIC (Shigella sp.) [µg/mL] | MIC (Aspergillus sp.) [µg/mL] | MIC (Candida albicans) [µg/mL] |
| --- | --- | --- | --- | --- | --- | --- | --- | --- | --- |
| CN1C[C@H](C(=O)c2ccc(Cl)cc2)[C@H]2c3ccccc3OC[C@H]21 | 40 (≈ 122 µM) | 15 (≈ 45.8 µM) | 20 (≈ 61 µM) | 10 (≈ 30.5 µM) | 25 (≈ 76.3 µM) | 10 (≈ 30.5 µM) | 25 (≈ 76.3 µM) | 35 (≈ 107 µM) | 45 (≈ 137 µM) |
| O=C(c1ccc(Cl)cc1)[C@@H]1[C@H]2c3ccccc3OC[C@H]2N2CCC[C@H]12 | 30 (≈ 84.8 µM) | 5 (≈ 14.1 µM) | 5 (≈ 14.1 µM) | 10 (≈ 28.3 µM) | 10 (≈ 28.3 µM) | 15 (≈ 42.4 µM) | 5 (≈ 14.1 µM) | 25 (≈ 70.7 µM) | 25 (≈ 70.7 µM) |
| O=C(c1ccc(Cl)cc1)[C@@H]1[C@H]2c3ccccc3OC[C@H]2N2CSC[C@H]12 | 75 (≈ 202 µM) | 20 (≈ 53.8 µM) | 25 (≈ 67.2 µM) | 15 (≈ 40.3 µM) | 30 (≈ 80.7 µM) | 25 (≈ 67.2 µM) | 30 (≈ 80.7 µM) | 70 (≈ 188 µM) | 65 (≈ 175 µM) |
| O=C(c1ccc(Cl)cc1)[C@@H]1[C@H]2c3ccccc3OC[C@H]2N2Cc3ccccc3C[C@H]12 | 45 (≈ 108 µM) | 5 (≈ 12 µM) | 5 (≈ 12 µM) | 10 (≈ 24 µM) | 15 (≈ 36.1 µM) | 15 (≈ 36.1 µM) | 20 (≈ 48.1 µM) | 25 (≈ 60.1 µM) | 20 (≈ 48.1 µM) |
| CN1C[C@@]2(CCc3ccccc3C2=O)[C@H]2c3ccccc3OC[C@H]21 | 105 (≈ 329 µM) | 35 (≈ 110 µM) | 20 (≈ 62.6 µM) | 25 (≈ 78.3 µM) | 60 (≈ 188 µM) | 55 (≈ 172 µM) | 45 (≈ 141 µM) | 85 (≈ 266 µM) | 75 (≈ 235 µM) |
| O=C1c2ccccc2CC[C@]12[C@H]1c3ccccc3OC[C@H]1N1CCC[C@@H]12 | 110 (≈ 318 µM) | 70 (≈ 203 µM) | 65 (≈ 188 µM) | 50 (≈ 145 µM) | 55 (≈ 159 µM) | 60 (≈ 174 µM) | 75 (≈ 217 µM) | 75 (≈ 217 µM) | 95 (≈ 275 µM) |
| O=C1c2ccccc2CC[C@]12[C@H]1c3ccccc3OC[C@H]1N1CSC[C@@H]12 | 105 (≈ 289 µM) | 55 (≈ 151 µM) | 45 (≈ 124 µM) | 65 (≈ 179 µM) | 40 (≈ 110 µM) | 60 (≈ 165 µM) | 70 (≈ 193 µM) | 75 (≈ 206 µM) | 90 (≈ 248 µM) |
| O=C1c2ccccc2CC[C@]12[C@H]1c3ccccc3OC[C@H]1N1Cc3ccccc3C[C@@H]12 | 50 (≈ 123 µM) | 5 (≈ 12.3 µM) | 5 (≈ 12.3 µM) | 5 (≈ 12.3 µM) | 10 (≈ 24.5 µM) | 5 (≈ 12.3 µM) | 5 (≈ 12.3 µM) | 25 (≈ 61.3 µM) | 35 (≈ 85.9 µM) |
| COC(=O)Nc1nc2ccccc2[nH]1 [CARBENDAZIM] | 15 (≈ 78.5 µM) |  |  |  |  |  |  | 15 (≈ 78.5 µM) | 10 (≈ 52.3 µM) |
| CN(C)[C@@H]1C(O)=C(C(N)=O)C(=O)[C@@]2(O)C(O)=C3C(=O)c4c(O)cccc4[C@@](C)(O)[C@H]3C[C@@H]12 [TETRACYCLINE] |  | 10 (≈ 22.5 µM) | 15 (≈ 33.8 µM) | 10 (≈ 22.5 µM) | 20 (≈ 45 µM) | 25 (≈ 56.3 µM) | 15 (≈ 33.8 µM) |  |  |
